ChEMBL document CHEMBL4339247, “Ascomylactams A-C, Cytotoxic 12- or 13-Membered-Ring Macrocyclic Alkaloids Isolated from the Mangrove Endophytic Fungus Didymella sp. CYSK-4, and Structure Revisions of Phomapyrrolidones A and C” (J Nat Prod, 2019)

Columns and labels:
Type in all cases: functional, cell-based
[1] = system: MDA-MB-435; test: Cytotoxicity in human MDA-MB-435 cells assessed as reduction in cell viability incubated for 72 hrs by MTT assay; conditions: MDA-MB-435, 72 h
[2] = system: MDA-MB-231; test: Cytotoxicity in human MDA-MB-231 cells assessed as reduction in cell viability incubated for 72 hrs by MTT assay; conditions: MDA-MB-231, 72 h
[3] = system: SNB-19; test: Cytotoxicity in human SNB19 cells assessed as reduction in cell viability incubated for 72 hrs by MTT assay; conditions: SNB-19, 72 h
[4] = system: HCT-116; test: Cytotoxicity in human HCT116 cells assessed as reduction in cell viability incubated for 72 hrs by MTT assay; conditions: HCT-116, 72 h
[5] = system: NCI-H460; test: Cytotoxicity in human NCI-H460 cells assessed as reduction in cell viability incubated for 72 hrs by MTT assay; conditions: NCI-H460, 72 h
[6] = system: PC-3; test: Cytotoxicity in human PC3 cells assessed as reduction in cell viability incubated for 72 hrs by MTT assay; conditions: PC-3, 72 h

Row | Structure (SMILES) | IC50 [1] [µM] | IC50 [2] [µM] | IC50 [3] [µM] | IC50 [4] [µM] | IC50 [5] [µM] | IC50 [6] [µM]
1 | CC1=C[C@@]2(C)C(=C(C)[C@H]3[C@@H]4C[C@H](C)C[C@H](C)[C@H]4[C@H]4Oc5ccc(cc5)C[C@]5(O)NC(=O)[C@]6(O[C@H]65)C(=O)[C@@H]2[C@@H]43)[C@H]1C | 7.8 | 5.1 | 7.8 | 4.2 | 4.4 | 7.5
2 | CC1=C[C@@]2(C)C(=C(C)[C@H]3[C@@H]4C[C@H](C)C[C@H](C)[C@H]4[C@H]4Oc5ccc(cc5)C[C@]5(O)NC(=O)[C@]6(O[C@H]65)C(=O)[C@H]2[C@@H]43)[C@H]1C | 16 | 12 | 29 | 15 | 12 | 22
3 | CC1=C[C@@]2(C)C(=C(C)[C@H]3[C@@H]4C[C@H](C)C[C@H](C)[C@H]4[C@H]4Oc5ccc(cc5)C[C@@H]5C(=O)NC(=O)[C@H]5C(=O)[C@@H]2[C@@H]43)[C@H]1C | 26 | 30 | > 50 | 25 | 28 | > 50
4 | COc1cccc2c1C(=O)c1c(O)c3c(c(O)c1C2=O)C[C@@](O)(C(=O)CO)C[C@@H]3O[C@H]1C[C@H](N)[C@@H](O)[C@H](C)O1 [EPIRUBICIN] | – | – | 2.3 | – | – | –
5 | CO[C@@H]1/C2=C(\O)[C@H]3[C@H]4[C@H](Oc5ccc(cc5)C[C@]1(O)NC2=O)[C@H]1[C@@H](C[C@H](C)C[C@@H]1C)[C@@H]4C(C)=C1[C@@H](C)C(C)=C[C@@]13C | 4.9 | 5.9 | 6.8 | 5.5 | 4.4 | 5.7
6 | CC1=C[C@@]2(C)C(=C(C)[C@H]3[C@@H]4C[C@H](C)C[C@H](C)[C@H]4[C@@H]4Oc5ccc(cc5)C[C@@]5(O)C=C(C(=O)N5)C(=O)[C@@H]2[C@@H]43)[C@H]1C | 12 | 6.6 | 18 | 4.5 | 13 | 20
